Results: PubChem BioAssay (NCI)
“And” between values parts separate entries of the source, which are not always exact repeats. Identical values can stand only once.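 Results reflect a 48-hour exposure of cells in 96-well plates to compound at five concentrations. GI50 = concentration required for 50% inhibition of growth. At the TGI there is no net growth.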

Assays:
Test in all cases: NCI tumour cell line growth inhibition, 48 h
[1] = tested on: EKVX NSCLC
[2] = tested on: HCT-116 colon
[3] = tested on: HT29 colon
[4] = tested on: M14 melanoma
[5] = tested on: NCI-H226 lung
[6] = tested on: NCI-H460 lung
[7] = tested on: SF-539 CNS
[8] = tested on: SK-MEL-2 melanoma
[9] = tested on: SK-OV-3 ovarian
[10] = tested on: SR leukemia

SMILES: COc1cc(/C=N/NC(=O)c2cnn3c2NC(c2ccccc2)C3)ccc1OCc1ccccc1 (stereo not given)
- GI50 [1]: 1.48 µM
- TGI [1]: 12.4 µM
- GI50 [2]: 1.18 µM
- TGI [2]: 11.7 µM
- GI50 [3]: 0.43 µM
- TGI [3]: 4.33 µM
- GI50 [4]: 0.695 µM
- TGI [4]: 4.45 µM
- GI50 [5]: 2.17 µM
- TGI [5]: 21.8 µM
- GI50 [6]: 0.437 µM
- TGI [6]: 1.66 µM
- GI50 [7]: 0.524 µM
- TGI [7]: 2.29 µM
- GI50 [8]: 1.32 µM
- TGI [8]: 7.09 µM
- GI50 [9]: 1.71 µM
- TGI [9]: 11.1 µM
- GI50 [10]: 0.214 µM
- TGI [10]: 5.05 µM

SMILES: CN(N=O)c1ccc(/C=C/c2ccnc3ccccc23)cc1
- TGI [1]: > 100 µM
- TGI [2]: > 100 µM
- TGI [3]: > 100 µM
- TGI [4]: > 100 µM
- TGI [5]: > 100 µM
- TGI [6]: > 100 µM
- TGI [7]: > 100 µM
- TGI [8]: > 100 µM
- TGI [9]: > 100 µM
- TGI [10]: > 100 µM

SMILES: O=C1OC(c2ccccc2)=N/C1=C\c1ccccc1
- TGI [1]: > 100 µM
- TGI [2]: > 100 µM
- GI50 [3]: > 100 µM and 32.8 µM
- TGI [3]: > 100 µM
- TGI [4]: > 100 µM
- TGI [5]: > 100 µM and 58.2 µM
- TGI [6]: > 100 µM
- TGI [7]: 55.2 µM and 40.8 µM
- TGI [8]: 46.8 µM
- TGI [9]: > 100 µM
- TGI [10]: 73.4 µM and > 100 µM

SMILES: COc1cc(C(=O)/C=C/c2c[nH]c3ccccc23)cc(OC)c1OC
- GI50 [1]: 0.0605 µM
- TGI [1]: > 100 µM
- GI50 [2]: < 0.0175 µM
- TGI [2]: 16.9 µM
- GI50 [3]: < 0.0146 µM
- TGI [3]: 0.343 µM
- GI50 [4]: < 0.0155 µM
- TGI [4]: 39.4 µM
- GI50 [5]: 0.397 µM
- TGI [5]: 26.8 µM
- GI50 [6]: < 0.0191 µM
- TGI [6]: 2.17 µM
- GI50 [7]: 0.0184 µM
- TGI [7]: 0.0965 µM
- GI50 [8]: 0.0392 µM
- TGI [8]: 19.2 µM
- GI50 [9]: 0.0438 µM
- TGI [9]: 31.1 µM
- GI50 [10]: < 0.01 µM
- TGI [10]: 13.8 µM

SMILES: CSc1ccc(-c2cn3ccsc3n2)cc1
- GI50 [1]: 36.2 µM
- TGI [1]: > 100 µM
- GI50 [2]: 3.6 µM
- TGI [2]: > 100 µM
- GI50 [3]: 33.3 µM
- TGI [3]: > 100 µM
- GI50 [4]: 18.1 µM
- TGI [4]: > 100 µM
- GI50 [5]: 24.8 µM
- TGI [5]: 98.1 µM
- GI50 [6]: 3.71 µM
- TGI [6]: > 100 µM
- GI50 [7]: 16.9 µM
- TGI [7]: > 75.3 µM
- GI50 [8]: 4 µM
- TGI [8]: > 92.9 µM
- GI50 [9]: 59.7 µM
- TGI [9]: > 100 µM
- GI50 [10]: 1.25 µM
- TGI [10]: > 60.8 µM

SMILES: COc1oc(C2C/C(=C/C(C)=C/C(C)=C/C(C)=C/c3ccc([N+](=O)[O-])cc3)CO2)c(C)c(=O)c1C (stereo not given)
- TGI [1]: 82.6 µM
- TGI [2]: 18.2 µM
- TGI [3]: > 50 µM
- TGI [4]: > 100 µM
- TGI [5]: > 54.3 µM
- TGI [6]: 15.8 µM
- TGI [7]: 33.4 µM
- TGI [8]: > 75.8 µM
- TGI [9]: > 63.5 µM
- TGI [10]: 3 µM

SMILES: O=C(NOCCO)c1ccc2cncn2c1Nc1ccc(I)cc1F
- GI50 [1]: 0.0629 µM
- TGI [1]: > 10 µM
- GI50 [2]: 0.0101 µM and < 0.01 µM
- TGI [2]: > 10 µM and 20.6 µM
- GI50 [3]: 0.00307 µM and < 0.01 µM
- TGI [3]: > 100 µM
- GI50 [4]: 0.00286 µM and < 0.01 µM
- GI50 [5]: 4.86 µM and 7.37 µM
- TGI [5]: > 100 µM
- GI50 [6]: > 10 µM and 21.9 µM
- TGI [6]: > 100 µM
- GI50 [7]: > 10 µM and 12.4 µM
- TGI [7]: > 100 µM
- GI50 [8]: 0.00127 µM and < 0.01 µM
- TGI [8]: 0.00636 µM and < 0.01 µM
- GI50 [9]: > 3.15 µM and 0.791 µM
- TGI [9]: > 96.2 µM
- GI50 [10]: > 10 µM and 19.1 µM
- TGI [10]: > 100 µM
